Data as given in patent US11767341B2, “Lincosamide antibiotics and uses thereof” (President and Fellows of Harvard College, priority 2017, dated 2023).
In brackets after ≈: the same amount, converted by molar mass. Where two headings read alike, the source gives them in different places.

Assays:
Assay in all cases: MIC determination
Format in all cases: cell-based
S. aureus ATCC 29213 = details: Staphylococcus aureus
S. aureus BAA 977 iErmA = details: Staphylococcus aureus, BAA977
[1] = system: S. aureus MP-549 msr(a) USA 300; details: Staphylococcus aureus, USA300, S. aureus MP-549 msr(a) USA 300
[2] = system: S. aureus Micromyx USA 300; details: Staphylococcus aureus, USA300
S. aureus MMX 3035 cErmA = details: Staphylococcus aureus, MMX3035CERMA
S. pneumoniae ATCC 49619 = details: Streptococcus pneumoniae, ATCC49619; S. pneumoniae ATCC 49619; read-out: MIC
[3] = system: S. pneumoniae MMX 3028 cErmB; details: Streptococcus pneumoniae, MMX3028CERMB
[4] = system: S. pneumoniae MMX 3031 cMefA; details: Streptococcus pneumoniae, MMX3031CMEFA
S. pyogenes ATCC 19615 = details: Streptococcus pyogenes, ATCC19615
[5] = system: S. pyogenes MMX 946 Macrolide-Resistant; details: Streptococcus pyogenes
E. faecalis ATCC 29212 = details: Enterococcus faecalis
[6] = system: E. faecalis MMX 847 Macrolide-Resistant; details: Enterococcus faecalis
C. difficile BAA 1805 = details: Clostridioides difficile, BAA1805
B. fragilis ATCC 25285 = details: Bacteroides fragilis, ATCC25285
K. pneumoniae ATCC 10031 = details: Klebsiella pneumoniae, ATCC10031; K. pneumoniae ATCC 10031; read-out: MIC
E. coli ATCC 25922 = details: Escherichia coli
[7] = system: E. coli MMX TolC parent strain; details: Escherichia coli
E. coli MMX 0121 ΔTolC = details: Escherichia coli
E. coli MP-9 ΔTolC = details: Escherichia coli
P. aeruginosa ATCC 27853 = details: Pseudomonas aeruginosa, ATCC27853
[8] = system: P. aeruginosa MMX Mex parent strain; details: Pseudomonas aeruginosa
[9] = system: P. aeruginosa MMX 3476 Δmex; details: Pseudomonas aeruginosa
H. influenzae ATCC 49247 = details: Haemophilus influenzae, ATCC49247
[10] = ATCC29213, S. aureus ATCC 29213, read-out: MIC
[11] = S. aureus Micromyx USA 300, read-out: MIC
[12] = S. aureus MMX 3035 cErmA, read-out: MIC
[13] = S. pneumoniae MMX 3028 cErmB, read-out: MIC
[14] = S. pyogenes ATCC 19615, read-out: MIC
[15] = S. pyogenes MMX 946 Macrolide-Resistant (MacRes), read-out: MIC
[16] = B. fragilis ATCC 25285, read-out: MIC
[17] = H. influenzae ATCC 49247, read-out: MIC
[18] = C. difficile BAA 1805, read-out: MIC

Structure (SMILES) | MIC (S. aureus ATCC 29213; [10]) | MIC (S. aureus BAA 977 iErmA) | MIC [2, 11] | MIC (S. pneumoniae ATCC 49619) | MIC [4] | MIC (S. pyogenes ATCC 19615; [14]) | MIC [6] | MIC (E. coli ATCC 25922; ATCC25922) | MIC [7] | MIC (E. coli MMX 0121 ΔTolC) | MIC (P. aeruginosa ATCC 27853) | MIC [8] | MIC [9] | MIC (S. aureus MMX 3035 cErmA) | MIC [3] | MIC [5] | MIC (B. fragilis ATCC 25285) | MIC (H. influenzae ATCC 49247) | MIC (E. faecalis ATCC 29212; ATCC29212, read-out: MIC) | MIC (C. difficile BAA 1805; [18]) | also measured
CSC1O[C@H]([C@H](NC(=O)[C@@H]2[C@@H]3OCC=CC[C@H]3CN2C)[C@H](C)Sc2ccc(-c3cncnc3)cc2)C(O)[C@@H](O)[C@H]1O (some centres unmarked) [FSA-212034] | 0.25 µg/mL (≈ 0.415 µM) | 0.25 µg/mL (≈ 0.415 µM) | 0.25 µg/mL (≈ 0.415 µM) | ≤ 0.06 µg/mL | ≤ 0.06 µg/mL | ≤ 0.06 µg/mL | > 64 µg/mL | > 64 µg/mL | > 64 µg/mL | 1 µg/mL (≈ 1.66 µM) | > 64 µg/mL | > 64 µg/mL | > 64 µg/mL | – | – | – | – | – | – | – | MIC [1]: 0.5 µg/mL (≈ 0.829 µM); MIC (S. aureus MMX 3035 cErmA; [12]): 32 µg/mL (≈ 53.1 µM); MIC [3, 13]: 4 µg/mL (≈ 6.64 µM); MIC [5, 15]: 2 µg/mL (≈ 3.32 µM); MIC (E. faecalis ATCC 29212; ATCC29212): 16 µg/mL (≈ 26.5 µM); MIC (C. difficile BAA 1805): 0.5 µg/mL (≈ 0.829 µM); MIC (B. fragilis ATCC 25285; [16]): 1 µg/mL (≈ 1.66 µM); MIC (K. pneumoniae ATCC 10031): 64 µg/mL (≈ 106 µM); MIC (E. coli MP-9 ΔTolC): 16 µg/mL (≈ 26.5 µM); MIC (H. influenzae ATCC 49247; [17]): 4 µg/mL (≈ 6.64 µM)
CSC1O[C@H]([C@H](NC(=O)[C@H]2NC[C@H]3CC=CCO[C@H]32)[C@H](C)Cl)C(O)[C@@H](O)[C@H]1O (some centres unmarked) [FSA-507051] | – | 16 µg/mL (≈ 36.6 µM) | – | 1 µg/mL (≈ 2.29 µM) | 1 µg/mL (≈ 2.29 µM) | – | > 32 µg/mL | 32 µg/mL (≈ 73.2 µM) | > 32 µg/mL | > 32 µg/mL | > 32 µg/mL | > 32 µg/mL | > 32 µg/mL | > 32 µg/mL | > 32 µg/mL | 32 µg/mL (≈ 73.2 µM) | 32 µg/mL (≈ 73.2 µM) | 16 µg/mL (≈ 36.6 µM) | – | – | MIC (S. aureus ATCC 29213; ATCC29213): 16 µg/mL (≈ 36.6 µM); MIC [2]: 16 µg/mL (≈ 36.6 µM); MIC (S. pyogenes ATCC 19615): 0.5 µg/mL (≈ 1.14 µM); MIC (E. faecalis ATCC 29212; ATCC29212): > 32 µg/mL; MIC (C. difficile BAA 1805): > 32 µg/mL
CSC1O[C@H]([C@H](NC(=O)[C@H]2NC[C@@H]3C=C(c4ccc(F)cc4)CCO[C@@H]23)[C@H](C)Cl)C(O)[C@@H](O)[C@H]1O (some centres unmarked) [FSA-507052] | 2 µg/mL (≈ 3.77 µM) | 2 µg/mL (≈ 3.77 µM) | 0.5 µg/mL (≈ 0.942 µM) | 0.25 µg/mL (≈ 0.471 µM) | 0.12 µg/mL (≈ 0.226 µM) | 0.25 µg/mL (≈ 0.471 µM) | > 32 µg/mL | > 32 µg/mL | > 32 µg/mL | > 32 µg/mL | > 32 µg/mL | > 32 µg/mL | > 32 µg/mL | > 32 µg/mL | > 32 µg/mL | > 32 µg/mL | > 32 µg/mL | > 32 µg/mL | 1 µg/mL (≈ 1.88 µM) | 16 µg/mL (≈ 30.1 µM) | –
CSC1O[C@H]([C@H](NC(=O)[C@H]2NC[C@@H]3C=C(c4ccc(C(F)(F)F)cc4)CCO[C@@H]23)[C@H](C)Cl)C(O)[C@@H](O)[C@H]1O (some centres unmarked) [FSA-507053] | 0.25 µg/mL (≈ 0.43 µM) | 0.25 µg/mL (≈ 0.43 µM) | 0.12 µg/mL (≈ 0.207 µM) | 0.25 µg/mL (≈ 0.43 µM) | 0.12 µg/mL (≈ 0.207 µM) | ≤ 0.06 µg/mL | > 64 µg/mL | > 64 µg/mL | > 64 µg/mL | 16 µg/mL (≈ 27.5 µM) | > 64 µg/mL | > 64 µg/mL | > 64 µg/mL | > 64 µg/mL | – | – | 16 µg/mL (≈ 27.5 µM) | 16 µg/mL (≈ 27.5 µM) | 2 µg/mL (≈ 3.44 µM) | 8 µg/mL (≈ 13.8 µM) | MIC [3, 13]: 32 µg/mL (≈ 55.1 µM); MIC [5, 15]: 32 µg/mL (≈ 55.1 µM)
CSC1O[C@H]([C@H](NC(=O)[C@H]2NC[C@@H]3CC(c4ccccc4)=CCO[C@H]32)[C@H](C)Cl)C(O)[C@@H](O)[C@H]1O (some centres unmarked) [FSA-507056] | 1 µg/mL (≈ 1.95 µM) | 1 µg/mL (≈ 1.95 µM) | 0.5 µg/mL (≈ 0.975 µM) | 0.25 µg/mL (≈ 0.487 µM) | 0.12 µg/mL (≈ 0.234 µM) | 0.25 µg/mL (≈ 0.487 µM) | > 32 µg/mL | > 32 µg/mL | > 32 µg/mL | > 32 µg/mL | > 32 µg/mL | > 32 µg/mL | > 32 µg/mL | > 32 µg/mL | > 32 µg/mL | > 32 µg/mL | > 32 µg/mL | > 32 µg/mL | 2 µg/mL (≈ 3.9 µM) | 16 µg/mL (≈ 31.2 µM) | –
CSC1O[C@H]([C@H](NC(=O)[C@H]2NC[C@@H]3CC(c4ccc(F)cc4)=CCO[C@H]32)[C@H](C)Cl)C(O)[C@@H](O)[C@H]1O (some centres unmarked) [FSA-507057] | 2 µg/mL (≈ 3.77 µM) | 1 µg/mL (≈ 1.88 µM) | 0.5 µg/mL (≈ 0.942 µM) | ≤ 0.06 µg/mL | ≤ 0.06 µg/mL | 0.12 µg/mL (≈ 0.226 µM) | > 64 µg/mL | > 64 µg/mL | > 64 µg/mL | 64 µg/mL (≈ 121 µM) | > 64 µg/mL | > 64 µg/mL | > 64 µg/mL | > 64 µg/mL | 64 µg/mL (≈ 121 µM) | > 64 µg/mL | 64 µg/mL (≈ 121 µM) | 64 µg/mL (≈ 121 µM) | 1 µg/mL (≈ 1.88 µM) | 16 µg/mL (≈ 30.1 µM) | –
CSC1O[C@H]([C@H](NC(=O)[C@H]2NC[C@@H]3CC(c4ccc(C(F)(F)F)cc4)=CCO[C@H]32)[C@H](C)Cl)C(O)[C@@H](O)[C@H]1O (some centres unmarked) [FSA-507060] | 2 µg/mL (≈ 3.44 µM) | 1 µg/mL (≈ 1.72 µM) | 0.5 µg/mL (≈ 0.861 µM) | 0.5 µg/mL (≈ 0.861 µM) | 0.25 µg/mL (≈ 0.43 µM) | 0.25 µg/mL (≈ 0.43 µM) | – | – | – | 16 µg/mL (≈ 27.5 µM) | > 64 µg/mL | > 64 µg/mL | > 64 µg/mL | – | 16 µg/mL (≈ 27.5 µM) | – | – | – | 8 µg/mL (≈ 13.8 µM) | 32 µg/mL (≈ 55.1 µM) | MIC (S. aureus MMX 3035 cErmA; [12]): 32 µg/mL (≈ 55.1 µM); MIC [5, 15]: 32 µg/mL (≈ 55.1 µM); MIC ([6]; E. faecalis MMX 847 Macrolide-Resistant (MacRes), read-out: MIC): 32 µg/mL (≈ 55.1 µM); MIC (B. fragilis ATCC 25285; [16]): 32 µg/mL (≈ 55.1 µM); MIC (E. coli ATCC 25922; ATCC25922, E. coli ATCC 25922, read-out: MIC): 64 µg/mL (≈ 110 µM); MIC ([7]; E. coli MMX TolC parent strain, read-out: MIC): 64 µg/mL (≈ 110 µM); MIC (H. influenzae ATCC 49247; [17]): 32 µg/mL (≈ 55.1 µM)
